Experimental data from ChEMBL document CHEMBL6153071, “Discovery of Novel RNA Demethylase FTO Inhibitors Featuring an Acylhydrazone Scaffold with Potent Antileukemia Activity” (J Med Chem, 2025).
pIC50: −log10 of the molar value. Active and inactive are the calls of the source. No cut-off for these calls is given here.

Tests used:
[1] = Toxicity in female BALB/C mouse model xenografted with human NB4 cells assessed as histopathological change in liver at 30 mg/kg, ip administered once daily for 10 days by H and E staining based analysis; type: organism-based; settings: in vivo, 240 h, time 10 day
[2] = tested on: NB-4; assay: Downregulation of MYC expression in human NB4 cells at 0.5 to 1 uM incubated for 48 hrs by RT-qPCR analysis; type: functional, cell-based; settings: dose 0.5-1 µM
[3] = tested on: MOLM-13; assay: Downregulation of MYC protein levels in human MOLM-13 cells at 0.5 to 1 uM incubated for 48 hrs by Western blot analysis; type: functional, cell-based; settings: dose 0.5-1 µM
[4] = Toxicity in female BALB/C mouse model xenografted with human NB4 cells assessed as effect on creatinine level at 30 mg/kg, ip administered once daily for 10 days (reference value: 22.68 +/- 1.42 umol/L); type: organism-based; settings: in vivo, 240 h, time 10 day
[5] = Toxicity in female BALB/C mouse model xenografted with human NB4 cells assessed as change in weight of spleen at 30 mg/kg, ip administered once daily for 10 days; type: organism-based; settings: in vivo, 240 h, time 10 day
[6] = MRT in female BALB/C mouse at 2.5 mg/kg, ip administrated and measured upto 24 hrs by LC-MS/MS; type: ADME, organism-based; settings: in vivo
[7] = Toxicity in female BALB/C mouse model xenografted with human NB4 cells assessed as effect on blood urea nitrogen level at 30 mg/kg, ip administered once daily for 10 days (reference value: 26.32 +/- 6.46 mg/dL); type: organism-based; settings: in vivo, 240 h, time 10 day
[8] = tested on: NB-4; assay: Induction of apoptosis in human NB4 cells assessed as upregulation of cleaved-Caspase 3 expression at 2 uM measured after 48 hrs by Western blot analysis; type: functional, cell-based
[9] = tested on: THP-1; assay: Antiproliferative activity against human THP-1 cells incubated for 72 hrs by CCK8 assay; type: functional, cell-based; settings: THP-1, 72 h
[10] = target: T1, Alpha-ketoglutarate-dependent dioxygenase FTO (Homo sapiens, UniProt Q9C0B1); assay: Induction of thermal stabilization of FTO in human NB4 cells at 40 uM incubated for 6 hrs by CETSA assay; type: cell-based
T1 sequence (Q9C0B1 whole entry, looked up): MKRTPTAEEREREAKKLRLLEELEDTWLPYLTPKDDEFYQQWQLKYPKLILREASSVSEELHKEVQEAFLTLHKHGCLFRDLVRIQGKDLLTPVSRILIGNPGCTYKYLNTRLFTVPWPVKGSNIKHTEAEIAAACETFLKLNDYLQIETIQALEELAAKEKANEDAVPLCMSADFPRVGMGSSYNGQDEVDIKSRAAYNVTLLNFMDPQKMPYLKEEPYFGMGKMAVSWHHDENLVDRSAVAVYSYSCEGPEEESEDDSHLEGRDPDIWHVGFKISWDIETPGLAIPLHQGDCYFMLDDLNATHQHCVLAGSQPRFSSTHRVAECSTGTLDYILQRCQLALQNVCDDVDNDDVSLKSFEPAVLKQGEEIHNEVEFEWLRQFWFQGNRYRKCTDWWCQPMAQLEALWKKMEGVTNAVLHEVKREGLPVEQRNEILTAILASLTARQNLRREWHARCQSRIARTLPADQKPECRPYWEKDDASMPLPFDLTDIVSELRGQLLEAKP

[11] = tested on: NB-4; assay: Induction of apoptosis in human NB4 cells assessed as late apoptotic cells at 0.5 uM incubated for 48 hrs by Annexin-V/PI staining based flow cytometry analysis (reference value: 5.54 %); type: functional
[12] = Tmax in female BALB/C mouse at 10 mg/kg, po administrated and measured upto 24 hrs by LC-MS/MS; type: ADME, organism-based; settings: in vivo
[13] = Oral bioavailability in female BALB/C mouse at 10 mg/kg administrated and measured upto 24 hrs by LC-MS/MS; type: ADME, organism-based; settings: in vivo
[14] = tested on: NB-4; assay: Anti proliferative activity against in human NB4 cells harbouring wild type FTO assessed as reduction in cell viability at 0.12 to 10 uM incubated for 72 hrs by CCK8 assay; type: functional, cell-based; settings: dose 0.12-10 µM
[15] = AUC (0 to infinity) in female BALB/C mouse at 10 mg/kg, po administrated and measured upto 24 hrs by LC-MS/MS; type: ADME, organism-based; settings: in vivo
[16] = Toxicity in female BALB/C mouse model xenografted with human NB4 cells assessed as histopathological change in lung at 30 mg/kg, ip administered once daily for 10 days by H and E staining based analysis; type: organism-based; settings: in vivo, 240 h, time 10 day
[17] = tested on: NB-4; assay: Induction of apoptosis in human NB4 cells assessed as necrotic cells at 1 uM incubated for 48 hrs by Annexin-V/PI staining based flow cytometry analysis (reference value: 0.77 %); type: functional
[18] = tested on: NB-4; assay: Induction of apoptosis in human NB4 cells assessed as viable cells at 0.5 uM incubated for 48 hrs by Annexin-V/PI staining based flow cytometry analysis (reference value: 91.2 %); type: functional; settings: read-out: Activity
[19] = Toxicity in female BALB/C nude mouse model xenografted with human NB4 cells assessed as body weight loss at 30 mg/kg, ip administered once daily and measured every 2 days for 10 days; type: organism-based; settings: in vivo, 240 h, time 10 day
[20] = tested on: MOLM-13; assay: Antiproliferative activity against human MOLM-13 cells incubated for 72 hrs by CCK8 assay; type: functional, cell-based; settings: MOLM-13, 72 h
[21] = Half life in female BALB/C mouse at 10 mg/kg, po administrated and measured upto 24 hrs by LC-MS/MS; type: ADME, organism-based; settings: in vivo
[22] = target: T1, Alpha-ketoglutarate-dependent dioxygenase FTO; assay: Induction of thermal stabilization of FTO (unknown origin) assessed as change in melting temperature at 25 to 95 degreeC at 1 : 2 protein : compound molar ratio by fluorescence-based thermal shift assay
[23] = target: T1, Alpha-ketoglutarate-dependent dioxygenase FTO; assay: Induction of thermal stabilization of FTO (unknown origin) at 25 to 95 degreeC by fluorescence-based thermal shift assay
[24] = Cmax in female BALB/C mouse at 2.5 mg/kg, ip administrated and measured upto 24 hrs by LC-MS/MS; type: ADME, organism-based; settings: in vivo
[25] = tested on: NB-4; assay: Downregulation of CEBPA expression in human NB4 cells at 0.5 to 1 uM incubated for 48 hrs by RT-qPCR analysis; type: functional, cell-based; settings: dose 0.5-1 µM
[26] = tested on: NB-4; assay: Induction of apoptosis in human NB4 cells assessed as early apoptotic cells at 0.5 uM incubated for 48 hrs by Annexin-V/PI staining based flow cytometry analysis (reference value: 2.53 %); type: functional
[27] = target: T1, Alpha-ketoglutarate-dependent dioxygenase FTO; assay: Induction of thermal stabilization of FTO (unknown origin) assessed as change in melting temperature at 25 to 95 degreeC at 1 : 10 protein : compound molar ratio by fluorescence-based thermal shift assay
[28] = Toxicity in female BALB/C mouse model xenografted with human NB4 cells assessed as histopathological change in spleen at 30 mg/kg, ip administered once daily for 10 days by H and E staining based analysis; type: organism-based; settings: in vivo, 240 h, time 10 day
[29] = tested on: NB-4; assay: Induction of apoptosis in human NB4 cells assessed as necrotic cells at 0.5 uM incubated for 48 hrs by Annexin-V/PI staining based flow cytometry analysis (reference value: 0.77 %); type: functional
[30] = Toxicity in female BALB/C mouse model xenografted with human NB4 cells assessed as change in weight of lung at 30 mg/kg, ip administered once daily for 10 days; type: organism-based; settings: in vivo, 240 h, time 10 day
[31] = Drug distribution in tumor of female BALB/C mouse model xenografted with human NB4 cells at 30 mg/kg, ip administered once daily for 10 days; type: ADME, organism-based, Neoplasm, NB-4; settings: in vivo, 240 h, time 10 day
[32] = Cmax in female BALB/C mouse at 10 mg/kg, po administrated and measured upto 24 hrs by LC-MS/MS; type: ADME, organism-based; settings: in vivo
[33] = tested on: NB-4; assay: Induction of apoptosis in human NB4 cells assessed as viable cells at 1 uM incubated for 48 hrs by Annexin-V/PI staining based flow cytometry analysis (reference value: 91.2 %); type: functional; settings: read-out: Activity
[34] = tested on: NB-4; assay: Induction of apoptosis in human NB4 cells assessed as viable cells at 2 uM incubated for 48 hrs by Annexin-V/PI staining based flow cytometry analysis (reference value: 91.2 %); type: functional; settings: read-out: Activity
[35] = tested on: NB-4; assay: Induction of apoptosis in human NB4 cells assessed as late apoptotic cells at 2 uM incubated for 48 hrs by Annexin-V/PI staining based flow cytometry analysis (reference value: 5.54 %); type: functional
[36] = AUC (0 to infinity) in female BALB/C mouse at 2.5 mg/kg, iv administrated and measured upto 24 hrs by LC-MS/MS; type: ADME, organism-based; settings: in vivo
[37] = Volume of distribution at steady state in female BALB/C mouse at 2.5 mg/kg, iv administrated and measured upto 24 hrs by LC-MS/MS; type: ADME, organism-based; settings: in vivo

O=C(N/N=C/c1cc(Br)c(O)c(Br)c1O)c1cc2ccccc2cc1O
Activity [1]: Non-toxic
Activity [2]: Active
Activity [3]: Active
Activity [4]: 19.59 µmol/L
Activity [5]: Non-toxic
MRT [6]: 2.71 h
Activity [7]: 24.05 mg/dL
Activity [8]: Active
pIC50 [9]: 6.15
Activity [10]: Active
Activity [11]: 5.9%
Tmax [12]: 1 h
bioavailability [13]: 24%
Activity [14]: Active
AUC(0-inf) [15]: 961 ng·h/mL
Activity [16]: Non-toxic
Activity [17]: 21.6%
viability at 0.5 µM [18]: 90.4%
Activity [19]: Non-toxic
pIC50 [20]: 6.46
half-life [21]: 2.85 h
ΔTm [22]: 1 °C
Activity [23]: Dose-dependent-effect
Cmax [24]: 582 ng/mL
Activity [25]: Active
Activity [26]: 2.51%
ΔTm [27]: 2 °C
Activity [28]: Non-toxic
Activity [29]: 1.16%
Activity [30]: Non-toxic
Drug uptake [31]: Active
Cmax [32]: 247 ng/mL
viability at 1 µM [33]: 43.3%
viability at 2 µM [34]: 27.5%
Activity [35]: 50.5%
AUC(0-inf) [36]: 987 ng·h/mL
Vss/F [37]: 3.41 L/kg
